Measured values from paper PMC11045757, “Group 3 medulloblastoma transcriptional networks collapse under domain specific EP300/CBP inhibition” (Nature Communications, 2024).

Tested on: 460 barcoded cancer cell lines
Assay: PRISM pooled barcoded cancer cell line growth screen, 10-point dose-response, 5 days, AUC
Type: cell-based
Design: scale not given here
Source text: Several small molecule inhibitors of distinct protein domains of EP300/CBP are available, though the majority target the histone acetyltransferase domain (HAT) or bromodomain (BRD)[5],[10],[21],[22]. […] We used these tools to investigate the relative contribution of the EP300/CBP BRD or HAT domain to tumor cell growth (Fig. 1a). To do so, we performed 10-point, dose-response growth assays using mixed pools of 460 barcoded cancer cell lines, over five days of treatment in vitro[33],[34]. Growth was measured using an area-under-the-curve (AUC) approach (Supplementary Table 1, Supplementary Fig. 1a). […] Given potential differences in compound penetration and solubility, and to compare the relative cell line and tumor-specific effects of these two compounds in assays performed non-simultaneously, we performed a median normalization of each dataset (Supplementary Table 2).

**Q.** Which results are given for CNC(=O)Nc1ccc2c(c1)CCC21OC(=O)N(CC(=O)N(Cc2ccc(F)cc2)C(C)C(F)(F)F)C1=O (stereo not shown) [Compound A485]?
**A.** AUC (SH4, Melanoma): 0.7491; AUC (SH10TC, Gastric Cancer): 0.9483; AUC (SHP77, Lung Cancer): 1; AUC (SIMA, Neuroblastoma): 0.7689; AUC (SJSA1, Osteosarcoma): 0.6938; AUC (SKES1, Ewing Sarcoma): 0.5686; AUC (SKHEP1, Liver Cancer): 0.9176; AUC (SKM1, AML): 0.6691; AUC (SKMEL30, Melanoma): 0.8035; AUC (SKMES1, Lung Cancer): 0.6858; AUC (SKMM2, Myeloma): 0.9139; AUC (SKNAS, Neuroblastoma): 0.7465; AUC (SKNBE2, Neuroblastoma): 0.711; AUC (SKNDZ, Neuroblastoma): 0.8727; AUC (SKNEP1, Ewing Sarcoma): 0.6902; AUC (SKNMC, Ewing Sarcoma): 0.8779; AUC (SKNO1, AML): 0.8126; AUC (SKNSH, Neuroblastoma): 0.7441; AUC (SKOV3, Ovarian Cancer): 0.768; AUC (SKUT1, Leiomyosarcoma): 0.8397; AUC (SNU1, Gastric Cancer): 1; AUC (SNU46, Head and Neck Cancer): 0.6485; AUC (SNU61, Colon/Colorectal Cancer): 0.8187; AUC (SNU81, Colon/Colorectal Cancer): 0.8344; AUC (SNU182, Liver Cancer): 0.5802; AUC (SNU201, Glioblastoma): 0.8259; AUC (SNU213, Pancreatic Cancer): 0.8601; AUC (SNU216, Gastric Cancer): 0.8096; AUC (SNU245, Bile Duct Cancer): 0.7564; AUC (SNU398, Liver Cancer): 0.8358; AUC (SNU407, Colon/Colorectal Cancer): 0.7333; AUC (SNU423, Liver Cancer): 0.7846; AUC (SNU449, Liver Cancer): 0.9343; AUC (SNU466, Glioblastoma): 0.8159; AUC (SNU478, Bile Duct Cancer): 0.7556; AUC (SNU601, Gastric Cancer): 0.8298; AUC (SNU668, Gastric Cancer): 0.8689; AUC (SNU685, Endometrial/Uterine Cancer): 0.8766; AUC (SNU719, Gastric Cancer): 0.9255; AUC (SNU869, Bile Duct Cancer): 0.9315; AUC (SNU878, Liver Cancer): 0.7163; AUC (SNU886, Liver Cancer): 0.7207; AUC (SNU1041, Head and Neck Cancer): 0.836; AUC (SNU1066, Head and Neck Cancer): 0.7809; AUC (SNU1076, Head and Neck Cancer): 0.7922; AUC (SNU1077, Endometrial/Uterine Cancer): 0.8978; AUC (SNU1079, Bile Duct Cancer): 0.8976; AUC (SNU1105, Glioblastoma): 0.823; AUC (SNU1196, Bile Duct Cancer): 0.8191; AUC (SNU1214, Head and Neck Cancer): 0.7713; AUC (SNUC2A, Colon/Colorectal Cancer): 1; AUC (SNUC4, Colon/Colorectal Cancer): 0.6416; AUC (SQ1, Lung Cancer): 0.8347; AUC (SR786, Lymphoma): 0.6609; AUC (STM9101, Rhabdoid): 0.89; AUC (SUDHL8, Lymphoma): 0.5295; AUC (SW48, Colon/Colorectal Cancer): 1; AUC (SW579, Thyroid Cancer): 0.7659; AUC (SW620, Colon/Colorectal Cancer): 0.9454; AUC (SW780, Bladder Cancer): 0.7867; AUC (SW837, Colon/Colorectal Cancer): 0.675; AUC (SW900, Lung Cancer): 0.774; AUC (SW948, Colon/Colorectal Cancer): 0.5667; AUC (SW1088, Glioma): 0.7952; AUC (SW1116, Colon/Colorectal Cancer): 0.9547; AUC (SW1463, Colon/Colorectal Cancer): 0.6958; AUC (SW1710, Bladder Cancer): 0.7157; AUC (T3M10, Lung Cancer): 0.9036; AUC (T24, Bladder Cancer): 0.9232; AUC (T47D, Breast Cancer): 0.9704; AUC (TALL1, T-acute leukemia): 0.6985; AUC (TC71, Ewing Sarcoma): 0.9262; AUC (TC106, Ewing Sarcoma): 0.5807; AUC (TC205, Ewing Sarcoma): 0.554; AUC (TCCPAN2, Pancreatic Cancer): 0.884; AUC (TCCSUP, Bladder Cancer): 0.8481; AUC (TE1, Esophageal Cancer): 0.8516; AUC (TE4, Esophageal Cancer): 0.8986; AUC (TE5, Esophageal Cancer): 0.8355; AUC (TE6, Esophageal Cancer): 0.6845; AUC (TE9, Esophageal Cancer): 0.9819; AUC (TE10, Esophageal Cancer): 0.7055; AUC (TE11, Esophageal Cancer): 0.5915; AUC (TE15, Esophageal Cancer): 0.6898; AUC (TE617T, Rhabdomyosarcoma): 0.7575; AUC (TF1, AML): 0.4573; AUC (TM87, Rhabdoid): 0.6723; AUC (TOLEDO, Lymphoma): 0.9051; AUC (TOV21G, Ovarian Cancer): 0.8786; AUC (TT2609C02, Thyroid Cancer): 0.6078; AUC (TT, Thyroid Cancer): 0.6637; AUC (TTC442, Rhabdomyosarcoma): 0.8716; AUC (TTC549, Rhabdoid): 0.683; AUC (TTC642, Rhabdoid): 0.604; AUC (TTC1240, Rhabdoid): 0.6274; AUC (TYKNU, Ovarian Cancer): 0.7341; AUC (U2OS, Osteosarcoma): 0.9217; AUC (U266B1, Myeloma): 0.8925; AUC (U937, AML): 0.6875; AUC (UACC62, Melanoma): 0.717; AUC (UACC257, Melanoma): 0.8193; AUC (UBLC1, Bladder Cancer): 0.7124; AUC (UMUC1, Bladder Cancer): 0.6454; AUC (UW228, Medulloblastoma): 1; AUC (VMCUB1, Bladder Cancer): 0.6611; AUC (VMRCRCW, Kidney Cancer): 0.8987; AUC (VMRCRCZ, Kidney Cancer): 0.5968; AUC (WM88, Melanoma): 0.5816; AUC (WM793, Melanoma): 0.8497; AUC (WM983B, Melanoma): 0.7071; AUC (YAPC, Pancreatic Cancer): 0.8726; AUC (YD10B, Head and Neck Cancer): 0.7608; AUC (YD15, Head and Neck Cancer): 0.6259; AUC (YD38, Head and Neck Cancer): 0.5959; AUC (YH13, Glioblastoma): 0.7751
